ChEMBL document CHEMBL1147941, “Novel morpholin-3-one derivatives induced apoptosis and elevated the level of P53 and Fas in A549 lung cancer cells” (Bioorg Med Chem, 2007)
≈ marks a conversion by molar mass, not a printed value. Calls of active or inactive are those of the source. The rule behind the calls is not given here.

Key:
A549 [1] = assay: Increase in Fas protein level in A549 cells at 40 ug/ml after 48 hrs relative to control; assay type: functional, Homo sapiens
A549 [2] = assay: Antiproliferative activity against human A549 cells after 48 hrs by MTT assay; assay type: functional, cell-based; conditions: A549, 48 h
A549 [3] = assay: Cell cycle arrest in A549 cells assessed as accumulation at G1 phase at 40 ug/ml after 48 hrs; assay type: functional, Homo sapiens
A549 [4] = assay: Cell cycle arrest in A549 cells assessed as accumulation at S phase at 40 ug/ml after 48 hrs; assay type: functional, Homo sapiens
A549 [5] = assay: Increase in P53 protein level in A549 cells at 40 ug/ml after 48 hrs relative to control; assay type: functional, Homo sapiens
A549 [6] = assay: Induction of apoptosis in A549 cells assessed as DNA fragmentation at 40 ug/ml after 48 hrs by acridine orange assay; assay type: functional, cell-based; conditions: Homo sapiens
A549 [7] = assay: Cell cycle arrest in A549 cells assessed as accumulation at G2/M phase at 40 ug/ml after 48 hrs; assay type: functional, Homo sapiens
A549 [8] = assay: Effect on morphology in A549 cells assessed as formation of apoptotic bodies at 40 ug/ml after 48 hrs; assay type: functional, cell-based; conditions: Homo sapiens

SMILES | Activity (A549 [1]) [%] | IC50 (A549 [2]) [µg/mL] | Activity (A549 [3]) [%] | Activity (A549 [4]) [%] | Activity (A549 [5]) [%] | Activity (A549 [6]) | Activity (A549 [7]) [%] | Activity (A549 [8])
COc1ccc(N2CC(COc3ccc(Cl)cc3)OCC2=O)cc1 (stereo not given) | 23.45 | 22.9 (≈ 65.9 µM) | 79.44 | 10.99 | 22.41 | Active | – | –
O=C1COC(COc2ccc([N+](=O)[O-])cc2)CN1c1ccccc1 (stereo not given) | 40.97 | 16.6 (≈ 50.6 µM) | 73.3 | – | 33.73 | Active | 18.64 | Active
O=C1COC(COc2ccc([N+](=O)[O-])cc2)CN1c1ccc(Cl)cc1 (stereo not given) | 21.53 | 38 (≈ 105 µM) | 63.25 | 14.82 | 23.98 | Active | 21.93 | –
